Measurements: ChEMBL document CHEMBL4330117, “Synthesis, biological evaluation and molecular docking of benzimidazole grafted benzsulfamide-containing pyrazole ring derivatives as novel tubulin polymerization inhibitors” (Bioorg Med Chem, 2019)
The source made the active and inactive calls. The calls are words filed in the database; no cut-off is given here.

Key:
A549 [1] = assay: Induction of apoptosis in human A549 cells assessed as upregulation of Bax level up to 0.5 uM after 24 hrs by Western blot analysis; format: functional, cell-based
A549 [2] = assay: Cell cycle arrest in human A549 cells assessed as downregulation of cdc25c expression level after 24 hrs by Western blot analysis; format: functional, cell-based
A549 [3] = assay: Cell cycle arrest in human A549 cells assessed as upregulation of cyclin B1 expression level after 24 hrs by Western blot analysis; format: functional, cell-based
HepG2 = assay: Antiproliferative activity against human HepG2 cells after 24 hrs by MTT assay; format: functional, cell-based; details: HepG2, 24 h
A549 [4] = assay: Induction of apoptosis in human A549 cells assessed as viable cells at 0.3 uM after 24 hrs by Annexin V-FITC/propidium iodide staining-based flow cytometric analysis (reference value: 82.8%); format: functional; details: A549, 24 h, read-out: Activity
A549 [5] = assay: Cell cycle arrest in human A549 cells assessed as accumulation at G2/M phase after 24 hrs by propidium iodide/RNase A staining-based flow cytometric analysis; format: functional
A549 [6] = assay: Induction of apoptosis in human A549 cells assessed as upregulation of cleaved PARP level up to 0.5 uM after 24 hrs by Western blot analysis; format: functional, cell-based
A549 [7] = assay: Antiproliferative activity against human A549 cells after 24 hrs by MTT assay; format: functional, cell-based; details: A549, 24 h
A549 [8] = assay: Cell cycle arrest in human A549 cells assessed as accumulation at G2/M phase at 0.1 uM after 24 hrs by propidium iodide/RNase A staining-based flow cytometric analysis (reference value: 17.62%); format: functional
A549 [9] = assay: Cell cycle arrest in human A549 cells assessed as accumulation at S phase at 0.1 uM after 24 hrs by propidium iodide/RNase A staining-based flow cytometric analysis (reference value: 11.36%); format: functional
Rattus norvegicus = assay: Antitumor activity against rat hepatoma H22 cells implanted in mouse assessed as reduction in tumor volume at 3 mg/kg, ip measured after 8 to 28 days; format: functional, organism-based
[10] = Cytotoxicity against HEK293T cells after 24 hrs by MTT assay; format: cell-based, HEK-293T; details: human
A549 [11] = assay: Induction of apoptosis in human A549 cells assessed as necrotic cells at 0.1 uM after 24 hrs by Annexin V-FITC/propidium iodide staining-based flow cytometric analysis (reference value: 10.8%); format: functional
HeLa = assay: Antiproliferative activity against human HeLa cells after 24 hrs by MTT assay; format: functional, cell-based
A549 [12] = assay: Induction of apoptosis in human A549 cells assessed as necrotic cells at 0.3 uM after 24 hrs by Annexin V-FITC/propidium iodide staining-based flow cytometric analysis (reference value: 10.8%); format: functional
A549 [13] = assay: Cell cycle arrest in human A549 cells assessed as accumulation at G1 phase at 0.5 uM after 24 hrs by propidium iodide/RNase A staining-based flow cytometric analysis (reference value: 71.02%); format: functional
A549 [14] = assay: Induction of apoptosis in human A549 cells assessed as early apoptotic cells at 0.5 uM after 24 hrs by Annexin V-FITC/propidium iodide staining-based flow cytometric analysis (reference value: 2.81%); format: functional
A549 [15] = assay: Induction of apoptosis in human A549 cells assessed as downregulation of Bcl2 level up to 0.5 uM after 24 hrs by Western blot analysis; format: functional, cell-based
A549 [16] = assay: Induction of microtubule disruption in human A549 cells assessed as spindle microtubule disorganization accompanied by misaligned chromosomes from metaphase plate at 0.5 uM after 24 hrs by rhodamine and DAPI staining based immunofluorescence microscopic analysis; format: functional, cell-based
[17] = Cytotoxicity against mouse primary hepatocytes after 24 hrs by MTT assay; format: cell-based, Hepatocyte
A549 [18] = assay: Induction of apoptosis in human A549 cells assessed as viable cells at 0.5 uM after 24 hrs by Annexin V-FITC/propidium iodide staining-based flow cytometric analysis (reference value: 82.8%); format: functional; details: A549, 24 h, read-out: Activity
Tubulin (Homo sapiens) [19] = target: T1, Tubulin (Homo sapiens) (UniProt P68371+Q9H4B7+P0DPH7+P68366+Q13509+Q71U36+P04350+Q3ZCM7+P07437+P68363+Q9BQE3+Q6PEY2+Q13885+Q9BVA1+Q9BUF5); assay: Induction of microtubule disruption in human A549 cells assessed as cell contraction at 0.2 uM after 24 hrs by rhodamine and DAPI staining based immunofluorescence microscopic analysis
A549 [20] = assay: Cell cycle arrest in human A549 cells assessed as accumulation at S phase at 0.5 uM after 24 hrs by propidium iodide/RNase A staining-based flow cytometric analysis (reference value: 11.36%); format: functional
A549 [21] = assay: Cell cycle arrest in human A549 cells assessed as accumulation at G1 phase at 0.1 uM after 24 hrs by propidium iodide/RNase A staining-based flow cytometric analysis (reference value: 71.02%); format: functional
A549 [22] = assay: Induction of apoptosis in human A549 cells assessed as late apoptotic cells at 0.1 uM after 24 hrs by Annexin V-FITC/propidium iodide staining-based flow cytometric analysis (reference value: 3.55%); format: functional
MCF7 = assay: Antiproliferative activity against human MCF7 cells after 24 hrs by MTT assay; format: functional, cell-based; details: MCF7, 24 h
A549 [23] = assay: Cell cycle arrest in human A549 cells assessed as accumulation at G1 phase at 0.3 uM after 24 hrs by propidium iodide/RNase A staining-based flow cytometric analysis (reference value: 71.02%); format: functional
A549 [24] = assay: Induction of apoptosis in human A549 cells assessed as early apoptotic cells at 0.3 uM after 24 hrs by Annexin V-FITC/propidium iodide staining-based flow cytometric analysis (reference value: 2.81%); format: functional
Tubulin (Bos taurus) [25] = target: T2, Tubulin (Bos taurus) (UniProt Q6B856+Q862L2+Q862F3); assay: Inhibition of [3H]colchicine binding to bovine brain tubulin at 5 uM
A549 [26] = assay: Induction of apoptosis in human A549 cells assessed as viable cells at 0.1 uM after 24 hrs by Annexin V-FITC/propidium iodide staining-based flow cytometric analysis (reference value: 82.8%); format: functional; details: A549, 24 h, read-out: Activity
A549 [27] = assay: Cell cycle arrest in human A549 cells assessed as accumulation at S phase at 0.3 uM after 24 hrs by propidium iodide/RNase A staining-based flow cytometric analysis (reference value: 11.36%); format: functional
A549 [28] = assay: Induction of apoptosis in human A549 cells assessed as early apoptotic cells at 0.1 uM after 24 hrs by Annexin V-FITC/propidium iodide staining-based flow cytometric analysis (reference value: 2.81%); format: functional
Tubulin (Homo sapiens) [29] = target: T1, Tubulin (Homo sapiens); assay: Induction of microtubule disruption in human A549 cells assessed as cell rounding at 0.2 uM after 24 hrs by rhodamine and DAPI staining based immunofluorescence microscopic analysis
Tubulin (Bos taurus) [30] = target: T2, Tubulin (Bos taurus); assay: Inhibition of vinblastine binding to bovine brain tubulin at 5 uM
A549 [31] = assay: Cell cycle arrest in human A549 cells assessed as accumulation at G2/M phase at 0.5 uM after 24 hrs by propidium iodide/RNase A staining-based flow cytometric analysis (reference value: 17.62%); format: functional
A549 [32] = assay: Cell cycle arrest in human A549 cells assessed as accumulation at G2/M phase at 0.3 uM after 24 hrs by propidium iodide/RNase A staining-based flow cytometric analysis (reference value: 17.62%); format: functional
A549 [33] = assay: Cell cycle arrest in human A549 cells assessed as upregulation of p21 expression level after 24 hrs by Western blot analysis; format: functional, cell-based
[34] = Toxicity in mouse xenografted with rat H22 cells assessed as weight loss at 3 mg/kg, ip measured after 28 days; format: organism-based; details: in vivo, 672 h
A549 [35] = assay: Cell cycle arrest in human A549 cells assessed as downregulation of Cdc2 expression level after 24 hrs by Western blot analysis; format: functional, cell-based
A549 [36] = assay: Induction of apoptosis in human A549 cells assessed as necrotic cells at 0.5 uM after 24 hrs by Annexin V-FITC/propidium iodide staining-based flow cytometric analysis (reference value: 10.8%); format: functional
A549 [37] = assay: Induction of apoptosis in human A549 cells assessed as upregulation of cleaved caspase-3 level up to 0.5 uM after 24 hrs by Western blot analysis; format: functional, cell-based
A549 [38] = assay: Induction of apoptosis in human A549 cells assessed as late apoptotic cells at 0.5 uM after 24 hrs by Annexin V-FITC/propidium iodide staining-based flow cytometric analysis (reference value: 3.55%); format: functional
A549 [39] = assay: Induction of apoptosis in human A549 cells assessed as late apoptotic cells at 0.3 uM after 24 hrs by Annexin V-FITC/propidium iodide staining-based flow cytometric analysis (reference value: 3.55%); format: functional

Cc1ccc(C)c(S(=O)(=O)n2c(-c3cn(-c4ccccc4)nc3-c3ccc(C(F)(F)F)cc3)nc3ccccc32)c1
Activity (A549 [1]): Active
Activity (A549 [2]): Dose-dependent effect
Activity (A549 [3]): Dose-dependent effect
IC50 (HepG2): 330 nM
viability at 0.3 µM (A549 [4]): 71%
Activity (A549 [5]): Dose-dependent effect
Activity (A549 [6]): Active
IC50 (A549 [7]): 150 nM
Activity (A549 [8]): 22.63%
Activity (A549 [9]): 14.42%
Activity (Rattus norvegicus): Active
CC50 at 24 h [10]: 223000 nM
Activity (A549 [11]): 13.4%
IC50 (HeLa): 210 nM
Activity (A549 [12]): 16.3%
Activity (A549 [13]): 47.63%
Activity (A549 [14]): 10.1%
Activity (A549 [15]): Active
Activity (A549 [16]): Active
CC50 at 24 h [17]: 132000 nM
viability at 0.5 µM (A549 [18]): 62.9%
Activity (Tubulin (Homo sapiens) [19]): Active
Activity (A549 [20]): 12.11%
Activity (A549 [21]): 62.95%
Activity (A549 [22]): 4.9%
IC50 (MCF7): 170 nM
Activity (A549 [23]): 53.31%
Activity (A549 [24]): 6.69%
inhibition (Tubulin (Bos taurus) [25]): 91%
viability at 0.1 µM (A549 [26]): 78.6%
Activity (A549 [27]): 18.56%
Activity (A549 [28]): 3.08%
Activity (Tubulin (Homo sapiens) [29]): Active
inhibition (Tubulin (Bos taurus) [30]): 0.06%
Activity (A549 [31]): 40.26%
Activity (A549 [32]): 28.13%
Activity (A549 [33]): Dose-dependent effect
Activity [34]: Non-Toxic
Activity (A549 [35]): Dose-dependent effect
Activity (A549 [36]): 18.2%
Activity (A549 [37]): Active
Activity (A549 [38]): 8.74%
Activity (A549 [39]): 5.95%
